In US20250186405A1, “Compound For Use In Treating Narcolepsy” (Alkermes, Inc., priority 2023, published 2025):
Where two headings read alike, the source gives them in different places.

Tests used:
[1] = Part 4 NT1: plasma pharmacokinetics, single doses; format: in vivo; settings: human, oral; for Cmax / AUC(0-t): geometric mean
Method: Subjects were randomized to 1 of 4 sequences.
Blood samples (up to 5 mL per sample) were collected for PK analysis of Compound A and its metabolite(s). The actual time of sample collection was recorded. The PK samples of the subjects randomized to placebo treatment were not analyzed. Any remaining plasma PK samples were used to explore the presence of any additional metabolites and/or biomarkers.
Plasma and urine concentrations of Compound A and its metabolite(s) were measured using a validated high-performance liquid chromatography with tandem mass spectrometry.
The PK population was used for summaries of plasma Compound A and its metabolite(s) concentrations and for analyses, summaries, and listing of PK parameters. Dose proportionality for Cmax, AUC0-t, and AUC0-∞ was evaluated using a linear model of logarithmically transformed values to assess the slope parameter, and the 95% CI for the slope was estimated. Where a 95% CI of the slope includes 1, it was considered as evidence of dose proportionality for that PK parameter.

[2] = test system: non-sleep deprived healthy volunteers; experiment: Part 1 SAD: quantitative EEG (beta band power) and KSS biomarkers; format: in vivo, human; settings: single doses, resting wakeful state
Method: On Day −1, approximately 25 hours prior to study drug administration (on Day 1), baseline assessments for qEEG began and were collected for approximately 12 hours.
At time points within Part 1 of the study, qEEG assessment was performed. The subject remained still in a seated or supine position during the EEG acquisition time points. Each EEG acquisition continued for a total of 10 minutes: initial 5 minutes with eyes closed followed by 5 minutes with eyes open looking at a fixation point.
The PD parameters in the SAD evaluation (e.g., changes from baseline in QTcF, power of qEEG frequency bands, KSS) were summarized using descriptive statistics for each time point by dose level.
As discussed above in Example sections 4.10.3.2, 4.13.4, and 4.15.1, pharmacodynamic parameters in the SAD evaluation (e.g., changes from baseline in QTcF, power of qEEG frequency bands, KSS) were measured in non-sleep deprived healthy volunteers. […] The dots indicate the average post-dose measurements at each timepoint and the shaded areas show the confidence intervals. The data points representing Compound A cluster in the area associated with both higher beta power and increased alertness relative to placebo, with little overlap between the two groups.

[3] = test system: subjects with narcolepsy type-1 (NT1); experiment: Part 4 NT1: Maintenance of Wakefulness Test (MWT) sleep latency; format: in vivo, human; settings: for change from baseline in average sleep latency on MWT vs placebo: 1, 3 and 8 mg
Method: On Day −1, approximately 25 hours prior to study drug administration (on Day 1), baseline assessments for Maintenance of Wakefulness Test (MWT) began and were collected in a series of trials over approximately 10 hours.
At specified time points (Part 4), MWT assessments were performed and took up to 40 minutes to complete. The MWT is the standard objective measure of an individual's ability to remain awake during the daytime in a darkened, quiet environment and is commonly used to assess response to treatment. The MWT assessments were performed according to American Academy of Sleep Medicine (AASM) guidance. During the MWT trials, subjects were seated in a bed or reclining chair in a darkened room with their back and head supported such that their neck is not uncomfortably flexed or extended. Subjects are instructed to sit still and remain awake for as long as possible during each 40-minute trial. If the subject fell asleep during a trial, they were awakened, and the trial was terminated. […] Upon completion of the trial, the subject returned to a normal environment/ambiance and remained awake (and were awakened if they fall asleep) until the next trial.
Once Part 4 was completed, the EEG data recorded during the MWT, as well as the technician notes, were transferred to the EEG vendor for further analysis. Technician notes were also maintained for transfer to Sponsor at the end of the study. A precise assessment of sleep latency was conducted by an experienced sleep scorer from the EEG vendor, and spectral analysis was performed on the EEG data recorded during MWT to assess absolute and relative powers in standard frequency bands (i.e., qEEG). All raw data and analysis results were transferred to the Sponsor.
For the changes from baseline in average sleep latency across the first 4 sessions of the MWT, descriptive statistics were provided by dose level. Mixed model with repeated measure (MMRM) for the 4-period crossover design were conducted with the change from baseline as a dependent variable, and the dose level and the period as fixed factors. The differences in the least square means between each Compound A dose level and the placebo (each Compound A dose level—the placebo), and the 2-sided CIs were provided.
Evaluation of Compound A effects on average sleep latency across 4 timepoints of MWT (2-, 4-, 6-, and 8-hours post-dose) from 4 patients with NT1 has been conducted at pre-dose baseline series on Day −1, and each of the crossovers (Days 1, 3, 5 and 7), testing placebo, and active dose levels of 1, 3, and 8 mg in the patients with NT1 compared to placebo.
Evaluation of Compound A effects on average sleep latency across 4 timepoints of MWT (2-, 4-, 6-, and 8-hours post-dose) from 10 patients with NT1 (including the 4 patients described above in 4.19.1) has been conducted at pre-dose baseline series on Day −1, and each of the crossovers (Days 1, 3, 5 and 7), testing placebo, and active dose levels of 1, 3, and 8 mg in the patients with NT1 compared to placebo.

[4] = 1 mg, NT1, N = 9 (10-patient analysis, Table 13a)
[5] = 3 mg, NT1, N = 9 (10-patient analysis, Table 13a)
[6] = 8 mg, NT1, N = 10 (10-patient analysis, Table 13a)

## CS(=O)(=O)N[C@H]1CCCN2C(=O)COc3ccccc3C3CCC(CC3)OCC12 (stereo partly drawn) [Compound A, N-[(4S,4aR,7α,10α)-1,2,3,4,4a,5,7,8,9,10,16,17-dodecahydro-17-oxo-7,10-ethanopyrido[1,2-d][1,7,4]benzodioxaazacyclotridecin-4-yl]methanesulfonamide]
[1]; 1 mg, NT1, 1 mg single dose, median, N = 3, read-out: Tmax
  Tmax: 1.5 h
[1]; 3 mg, NT1, 3 mg single dose, median, N = 4, read-out: Tmax
  Tmax: 1.5 h
[1]; 8 mg, NT1, 8 mg single dose, median, N = 3, read-out: Tmax
  Tmax: 3 h
[1]; 8 mg, NT1, single dose 1, 3 and 8 mg (range 0.5 to 4.0), read-out: median Tmax
  Tmax: 1.5 h
[1]; NT1, 1 mg single dose, N = 3
  Cmax: 4.39 ng/mL
[1]; NT1, 1 mg single dose, N = 3, read-out: AUC0-24
  AUC(0-t): 19.5 ng·h/mL
[1]; NT1, 3 mg single dose, N = 4
  Cmax: 11.6 ng/mL
[1]; NT1, 3 mg single dose, N = 4, read-out: AUC0-24
  AUC(0-t): 59.1 ng·h/mL
[1]; NT1, 8 mg single dose, N = 3
  Cmax: 27.9 ng/mL
[1]; NT1, 8 mg single dose, N = 3, read-out: AUC0-24
  AUC(0-t): 169 ng·h/mL
[2]
  qEEG beta band signal, change from baseline: Dose-dependent increases in beta band signal were observed
[3]; 1 mg, 4 patients with NT1
  average sleep latency improvement on MWT: 19.5 min
[3]; 1 mg, NT1, N = 4
  Change from Day −1 in Average Sleep Latency on the MWT, LSM difference vs placebo: 19.47 min
[3]; 1 mg, NT1, N = 4, average of 2, 4, 6, 8 h post-dose
  Change from Day −1 in Average Sleep Latency on the MWT, LSM: 18.41 min
[3]; [4]
  Change from Day −1 in Average Sleep Latency on the MWT, LSM: 16.95 min
  Change from Day −1 in Average Sleep Latency on the MWT, LSM difference vs placebo: 18.38 min
[3]; 3 mg, 4 patients with NT1
  MWT by-timepoint effect: maximum effect over 2, 4 and 6-hour timepoints, and meaningful effect at 8 hours
[3]; 3 mg, NT1, N = 4
  Change from Day −1 in Average Sleep Latency on the MWT, LSM difference vs placebo: 31.16 min
[3]; 3 mg, NT1, N = 4, average of 2, 4, 6, 8 h post-dose
  Change from Day −1 in Average Sleep Latency on the MWT, LSM: 30.09 min
[3]; [5]
  Change from Day −1 in Average Sleep Latency on the MWT, LSM: 21.15 min
  Change from Day −1 in Average Sleep Latency on the MWT, LSM difference vs placebo: 22.57 min
[3]; 8 mg, 4 patients with NT1, including 10 hours post-dose
  MWT effect at every timepoint (maximum score 40 minutes): 40 min
[3]; 8 mg, NT1, N = 4
  Change from Day −1 in Average Sleep Latency on the MWT, LSM difference vs placebo: 38.13 min
[3]; 8 mg, NT1, N = 4, average of 2, 4, 6, 8 h post-dose
  Change from Day −1 in Average Sleep Latency on the MWT, LSM: 37.06 min
[3]; [6]
  Change from Day −1 in Average Sleep Latency on the MWT, LSM: 32.55 min
  Change from Day −1 in Average Sleep Latency on the MWT, LSM difference vs placebo: 33.97 min
[3]; 4 patients with NT1, 2-8 hours post-dose
  change from baseline in average sleep latency on MWT vs placebo: statistically significant improvement in sleep latency
[3]; 10 patients with NT1, 2-8 hours post-dose
  change from baseline in average sleep latency on MWT vs placebo: statistically significant improvement in sleep latency
